# Literature values, collected in US11134680B2, “Disinfectant having organic acids” (Bode Chemie GmbH, priority 2015, dated 2021).
# Legend:
# Staphylococcus aureus = details: exposure time of 72 hours
# [1] = at 20° C.
# C. albicans = details: 72 hours
compound,measurement,setting,value
CC(=O)O [acetic acid],minimum inhibitory concentration (MIC),Staphylococcus aureus,9%
CC(O)C(=O)O (centres unmarked) [lactic acid],pKa,[1],3.87
same,reduction factor,Staphylococcus aureus; concentration of 0.3%,> 5 log
O=C([O-])c1ccccc1.[Na+] [sodium benzoate],MMC,C. albicans; >5 log,1200 µg/mL
same,reduction (microbicidal action),C. albicans; application solution of 0.12%,> 5 log
